Assay results: US20090124644A1, “HIV INHIBITING 2-(4-CYANOPHENYLAMINO) PYRIMIDINE DERIVATIVES” (priority 2005, published 2009)

Experiments:
Type in all cases: cell-based
[1] = system: Strain IIIB, wild type HIV-LAI strain; experiment: Antiviral spectrum, cellular assay, strain IIIB; conditions: Human immunodeficiency virus 1
Method: (§1) Because of the increasing emergence of drug resistant HIV strains, the present compounds were tested for their potency against clinically isolated HIV strains harboring several mutations. These mutations are associated with resistance to reverse transcriptase inhibitors and result in viruses that show various degrees of phenotypic cross-resistance to the currently commercially available drugs such as for instance AZT and delavirdine.
(§2) The antiviral activity of the compound of the present invention has been evaluated in the presence of wild type HIV and HIV mutants bearing mutations at the reverse transcriptase gene. The activity of the compounds is evaluated using a cellular assay and the residual activity is expressed in pEC50 values. The columns IIIB and A-G in the table list the pEC50 values against various strains IIIB, A-G.
(§3) Strain IIIB is wild type HIV-LAI strain Strain A contains mutation Y181C in HIV reverse transcriptase, Strain B contains mutation V106A in HIV reverse transcriptase, Strain C contains mutation L100I in HIV reverse transcriptase, Strain D contains mutation Y188L in HIV reverse transcriptase, Strain E contains mutations L100I and K103N in HIV reverse transcriptase, Strain F contains mutations K103N and Y181C in HIV reverse transcriptase.

[2] = system: Strain A, mutation Y181C in HIV reverse transcriptase; experiment: Antiviral spectrum, cellular assay, strain A; conditions: Human immunodeficiency virus 1, read-out: pEC50 A (converted)
Method: as §1, §2, §3

[3] = system: Strain B, mutation V106A in HIV reverse transcriptase; experiment: Antiviral spectrum, cellular assay, strain B; conditions: Human immunodeficiency virus 1, read-out: pEC50 B (converted)
Method: as §1, §2, §3

[4] = system: Strain C, mutation L100I in HIV reverse transcriptase; experiment: Antiviral spectrum, cellular assay, strain C; conditions: Human immunodeficiency virus 1, read-out: pEC50 C (converted)
Method: as §1, §2, §3

[5] = system: Strain D, mutation Y188L in HIV reverse transcriptase; experiment: Antiviral spectrum, cellular assay, strain D; conditions: Human immunodeficiency virus 1, read-out: pEC50 D (converted)
Method: as §1, §2, §3

[6] = system: Strain E, mutations L100I and K103N in HIV reverse transcriptase; experiment: Antiviral spectrum, cellular assay, strain E; conditions: Human immunodeficiency virus 1, read-out: pEC50 E (converted)
Method: as §1, §2, §3

[7] = system: Strain F, mutations K103N and Y181C in HIV reverse transcriptase; experiment: Antiviral spectrum, cellular assay, strain F; conditions: Human immunodeficiency virus 1, read-out: pEC50 F (converted)
Method: as §1, §2, §3

Row | Compound | EC50 [1] [nM] | EC50 [2] [nM] | EC50 [3] [nM] | EC50 [4] [nM] | EC50 [5] [nM] | EC50 [6] [nM] | EC50 [7] [nM]
1 | Cc1cc(C#N)cc(C)c1Nc1nc(Nc2ccc(C#N)cc2)nc(N)c1Br [Compound 1] | 0.631 | 3.98 | 0.398 | 0.794 | 0.794 | 3.98 | 3.98
2 | N#Cc1ccc(Nc2nc(N)c(Br)c(Sc3c(C#N)cc(C#N)cc3C#N)n2)cc1 [Compound 2] | 3.16 | 15.8 | 3.16 | 20 | 3.98 | 7.94 | 20
3 | Cc1cc(C#N)cc(C)c1[S+]([O-])c1nc(Nc2ccc(C#N)cc2)nc(N)c1Br (stereo not drawn) [Compound 3] | 5.01 | 79.4 | 7.94 | 1580 | 39.8 | 6310 | 251
